Assay results reported in ChEMBL document CHEMBL4130461, “New chemotype of selective and potent inhibitors of human delta 24-dehydrocholesterol reductase” (Eur J Med Chem, 2017).
Counter-ions that a name gives are not always drawn. Active and inactive are the calls of the source. The calls are words filed in the database; no cut-off is given here.

How the values were obtained:
HL-60 [1] = assay: Induction of sterol accumulation in human HL60 cells assessed as desmosterol accumulation at 1 uM incubated for 24 hrs by GC-MS analysis; assay type: functional, cell-based
HL-60 [2] = assay: Induction of sterol accumulation in human HL60 cells assessed as desmosterol accumulation at 50 uM incubated for 24 hrs by GC-MS analysis; assay type: functional, cell-based
HL-60 [3] = assay: cells; conditions: Homo sapiens
Description: Cytotoxicity in human HL60 cells by MTT assay

HL-60 [4] = assay: Induction of sterol accumulation in human HL60 cells at 1 uM incubated for 24 hrs by GC-MS analysis; assay type: functional, cell-based
HL-60 [5] = assay: Induction of sterol accumulation in human HL60 cells at 50 uM incubated for 24 hrs by GC-MS analysis; assay type: functional, cell-based
HL-60 [6] = assay: Induction of sterol accumulation in human HL60 cells assessed as lathosterol accumulation at 1 uM incubated for 24 hrs by GC-MS analysis; assay type: functional, cell-based
HL-60 [7] = assay: Induction of sterol accumulation in human HL60 cells assessed as lathosterol accumulation at 50 uM incubated for 24 hrs by GC-MS analysis; assay type: functional, cell-based
[8] = biological target: T1, Lathosterol oxidase (Homo sapiens) (UniProt O75845); assay: Inhibition of C5-desaturase in human HL60 cells assessed as compound level causing induction of sterol accumulation incubated for 24 hrs by GC-MS analysis; assay type: cell-based
T1 sequence (whole entry): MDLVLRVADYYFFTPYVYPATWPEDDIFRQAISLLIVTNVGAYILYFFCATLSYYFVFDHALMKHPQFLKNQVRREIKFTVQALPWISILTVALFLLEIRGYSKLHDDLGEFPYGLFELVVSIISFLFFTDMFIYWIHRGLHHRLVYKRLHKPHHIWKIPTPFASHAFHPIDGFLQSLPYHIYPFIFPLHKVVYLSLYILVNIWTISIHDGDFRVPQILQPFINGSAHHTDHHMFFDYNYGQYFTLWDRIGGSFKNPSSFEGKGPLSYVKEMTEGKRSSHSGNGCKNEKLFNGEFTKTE

HL-60 [9] = assay: Induction of sterol accumulation in human HL60 cells assessed as zymosterol accumulation at 1 uM incubated for 24 hrs by GC-MS analysis; assay type: functional, cell-based
HL-60 [10] = assay: Induction of sterol accumulation in human HL60 cells assessed as holesta-7,24-dien-3beta-ol accumulation at 1 uM incubated for 24 hrs by GC-MS analysis; assay type: functional, cell-based
HL-60 [11] = assay: Cytotoxicity in human HL60 cells at 50 uM by MTT assay; assay type: cell-based; conditions: hl-60, 50 µM
Mus musculus [12] = assay: Liver toxicity in C57BL/6 mouse assessed as effect on ALT levels at 500 ug/day, iv dosed daily for 5 days; assay type: organism-based; conditions: in vivo, 120 h
Mus musculus [13] = assay: Liver toxicity in C57BL/6 mouse assessed as effect on AST levels at 500 ug/day, iv dosed daily for 5 days; assay type: organism-based; conditions: in vivo, 120 h
Mus musculus [14] = assay: Acute liver toxicity in C57BL/6 mouse at 500 ug/day, iv dosed daily for 5 days; assay type: organism-based; conditions: in vivo, 120 h
Mus musculus [15] = assay: Reduction in cholesterol level in C57BL/6 mouse blood at 500 ug/day, iv dosed daily for 5 days byGC-MS analysis; assay type: functional, organism-based
Mus musculus [16] = assay: Induction of desmosterol accumulation in C57BL/6 mouse blood at 500 ug/day, iv dosed daily for 5 days byGC-MS analysis; assay type: functional
HL-60 [17] = assay: Intracellular drug accumulation in human HL60 cells at 10 uM incubated for 24 hrs by GC-MS analysis; assay type: ADME, cell-based; conditions: hl-60, 24 h
HL-60 [18] = assay: Extracellular drug accumulation in human HL60 cells at 10 uM incubated for 24 hrs by GC-MS analysis; assay type: ADME, cell-based; conditions: hl-60, 24 h
[19] = Drug metabolism in human HL60 cells at 10 uM incubated for 24 hrs by GC-MS analysis; assay type: ADME, cell-based; conditions: hl-60, 24 h
HL-60 [20] = assay: Induction of sterol accumulation in human HL60 cells at 0.1 uM incubated for 24 hrs by GC-MS analysis; assay type: functional, cell-based
HL-60 [21] = assay: Induction of sterol accumulation in human HL60 cells assessed as zymosterol accumulation at 50 uM incubated for 24 hrs by GC-MS analysis; assay type: functional, cell-based
HL-60 [22] = assay: Induction of sterol accumulation in human HL60 cells assessed as holesta-7,24-dien-3beta-ol accumulation at 50 uM incubated for 24 hrs by GC-MS analysis; assay type: functional, cell-based

CONC(=O)[C@@H](C)[C@H]1CC[C@H]2C3=CC[C@H]4C[C@@H](OC(C)=O)CC[C@]4(C)[C@H]3CC[C@]12C
Activity (HL-60 [1]): Active
Activity (HL-60 [2]): Active
IC50 (HL-60 [3]): > 50 µM

CC(=O)O[C@H]1CC[C@@]2(C)[C@@H](CC=C3[C@@H]2CC[C@]2(C)[C@@H]([C@H](C)C=O)CC[C@@H]32)C1
Activity (HL-60 [4]): inactive
Activity (HL-60 [5]): inactive
IC50 (HL-60 [3]): > 50 µM

CN1CCN(CCCN2c3ccccc3Sc3ccc(C(F)(F)F)cc32)CC1 [TRIFLUOPERAZINE HYDROCHLORIDE]
Activity (HL-60 [1]): Active
Activity (HL-60 [6]): Active
Activity (HL-60 [2]): Active
Activity (HL-60 [7]): Active
INH [8]: 1 to 50 µM
IC50 (HL-60 [3]): 16 µM

CNC[C@@H](C)[C@H]1CC[C@H]2C3=CC[C@H]4C[C@@H](OC(C)=O)CC[C@]4(C)[C@H]3CC[C@]12C
Activity (HL-60 [1]): Active
Activity (HL-60 [6]): Active
Activity (HL-60 [9]): Active
Activity (HL-60 [10]): Active
Activity (HL-60 [11]): Toxic
IC50 (HL-60 [3]): 20 µM

C/C=C(\C)C(=O)OC[C@@H](C)[C@H]1CC[C@H]2C3=CC[C@H]4C[C@@H](OC(C)=O)CC[C@]4(C)[C@H]3CC[C@]12C
Activity (HL-60 [1]): Active
Activity (HL-60 [2]): Active
IC50 (HL-60 [3]): > 50 µM

CC(=O)O[C@H]1CC[C@@]2(C)[C@@H](CC=C3[C@@H]2CC[C@]2(C)[C@@H]([C@H](C)COC(=O)CN(C)C)CC[C@@H]32)C1
Activity (HL-60 [1]): Active
Activity (HL-60 [11]): Toxic
IC50 (HL-60 [3]): 21 µM

C[C@H](O)[C@H]1CC[C@H]2[C@@H]3CC=C4C[C@@H](O)CC[C@]4(C)[C@H]3CC[C@]12C
Activity (HL-60 [4]): inactive
Activity (HL-60 [5]): inactive
IC50 (HL-60 [3]): > 50 µM

CC(=O)O[C@H]1CC[C@@]2(C)[C@@H](CC=C3[C@@H]2CC[C@]2(C)[C@@H]([C@H](C)C(=O)NO)CC[C@@H]32)C1
Activity (HL-60 [11]): Toxic
Activity (HL-60 [4]): inactive
IC50 (HL-60 [3]): 18 µM

CC(=O)O[C@H]1CC[C@@]2(C)[C@@H](CC=C3[C@@H]2CC[C@]2(C)[C@@H]([C@H](C)COC=O)CC[C@@H]32)C1
Activity (HL-60 [1]): Active
Activity (HL-60 [2]): Active
Activity (Mus musculus [12]): Non-Toxic
Activity (Mus musculus [13]): Non-Toxic
Activity (Mus musculus [14]): Non-Toxic
Activity (Mus musculus [15]): Active
Activity (Mus musculus [16]): 1 µg/mL
Drug uptake (HL-60 [17]): 1 µM
Drug uptake (HL-60 [18]): 2 µM
Drug metabolism [19]: Metabolite_Notdetected
IC50 (HL-60 [3]): > 50 µM

CC(=O)O[C@H]1CC[C@@]2(C)[C@@H](CC=C3[C@@H]2CC[C@]2(C)[C@@H]([C@H](C)C(=O)O)CC[C@@H]32)C1
Activity (HL-60 [4]): inactive
Activity (HL-60 [5]): inactive
IC50 (HL-60 [3]): > 50 µM

CCCC(=O)N(C)C[C@@H](C)[C@H]1CC[C@H]2C3=CC[C@H]4C[C@@H](OC(C)=O)CC[C@]4(C)[C@H]3CC[C@]12C
Activity (HL-60 [1]): Active
Activity (HL-60 [11]): Toxic
IC50 (HL-60 [3]): 13 µM

CCN(CC)CCO[C@H]1CC[C@@]2(C)C(=CC[C@@H]3[C@@H]2CC[C@]2(C)C(=O)CC[C@@H]32)C1
IC50 (HL-60 [3]): > 50 µM

CCC(=O)NC[C@@H](C)[C@H]1CC[C@H]2C3=CC[C@H]4C[C@@H](OC(C)=O)CC[C@]4(C)[C@H]3CC[C@]12C
Activity (HL-60 [1]): Active
Activity (HL-60 [2]): Active
IC50 (HL-60 [3]): > 50 µM

CC(C)CCC[C@@H](C)[C@H]1CC[C@H]2C3=CC[C@H]4C[C@@H](O)CC[C@]4(C)[C@H]3CC[C@]12C
Activity (HL-60 [20]): inactive

CCC(=O)N(C)C[C@@H](C)[C@H]1CC[C@H]2C3=CC[C@H]4C[C@@H](OC(C)=O)CC[C@]4(C)[C@H]3CC[C@]12C
Activity (HL-60 [1]): Active
Activity (HL-60 [11]): Toxic
IC50 (HL-60 [3]): 20 µM

CCONC(=O)[C@@H](C)[C@H]1CC[C@H]2C3=CC[C@H]4C[C@@H](OC(C)=O)CC[C@]4(C)[C@H]3CC[C@]12C
Activity (HL-60 [11]): Toxic
Activity (HL-60 [4]): inactive
IC50 (HL-60 [3]): 18 µM

CC(=O)O[C@H]1CC[C@@]2(C)[C@@H](CC=C3[C@@H]2CC[C@]2(C)[C@@H]([C@H](C)CN)CC[C@@H]32)C1
Activity (HL-60 [1]): Active
Activity (HL-60 [2]): Active
IC50 (HL-60 [3]): > 50 µM

CNC(=O)[C@@H](C)[C@H]1CC[C@H]2C3=CC[C@H]4C[C@@H](OC(C)=O)CC[C@]4(C)[C@H]3CC[C@]12C
Activity (HL-60 [1]): Active
Activity (HL-60 [2]): Active
IC50 (HL-60 [3]): > 50 µM

C[C@H](CCC(=O)N(C)C)[C@H]1CC[C@H]2[C@@H]3CC=C4C[C@@H](O)CC[C@]4(C)[C@H]3CC[C@]12C
Activity (HL-60 [1]): Active
Activity (HL-60 [2]): Active
IC50 (HL-60 [3]): > 50 µM

C[C@H](CO)[C@H]1CC[C@H]2[C@@H]3CC=C4C[C@@H](O)CC[C@]4(C)[C@H]3CC[C@]12C
Activity (HL-60 [1]): Active
Activity (HL-60 [2]): Active
IC50 (HL-60 [3]): > 50 µM

CC(C)=CCC[C@@H](C)[C@H]1CC[C@H]2C3=CC[C@H]4C[C@@H](O)CC[C@]4(C)[C@H]3CC[C@]12C
Activity (HL-60 [20]): inactive

CC(=O)O[C@H]1CC[C@@]2(C)[C@@H](CC=C3[C@@H]2CC[C@]2(C)[C@@H]([C@H](C)C(=O)N(C)CC(C)C)CC[C@@H]32)C1
Activity (HL-60 [2]): Active
Activity (HL-60 [4]): inactive
IC50 (HL-60 [3]): 47 µM

CC(=O)O[C@H]1CC[C@@]2(C)[C@@H](CC=C3[C@@H]2CC[C@]2(C)[C@@H]([C@H](C)C(=O)N(C)C)CC[C@@H]32)C1
Activity (HL-60 [4]): inactive
Activity (HL-60 [5]): inactive
IC50 (HL-60 [3]): > 50 µM

CC(=O)O[C@H]1CC[C@@]2(C)[C@@H](CC=C3[C@@H]2CC[C@]2(C)[C@@H]([C@H](C)CO)CC[C@@H]32)C1
Activity (HL-60 [1]): Active
Activity (HL-60 [2]): Active
IC50 (HL-60 [3]): > 50 µM

CCN(CC)CCOc1ccc(C(O)(Cc2ccc(Cl)cc2)c2ccc(C)cc2)cc1 (stereo not drawn) [TRIPARANOL]
Activity (HL-60 [1]): Active
Activity (HL-60 [6]): Active
Activity (HL-60 [9]): Active
Activity (HL-60 [10]): Active
Activity (HL-60 [11]): Toxic
IC50 (HL-60 [3]): 10 µM

CC(C)=CCC[C@@H](C)[C@H]1CC[C@H]2C3=C(CC[C@]12C)[C@@]1(C)CC[C@H](O)C[C@@H]1CC3
Activity (HL-60 [20]): inactive

C[C@H](CO)[C@H]1CC[C@H]2C3=CC[C@H]4C[C@@H](O)CC[C@]4(C)[C@H]3CC[C@]12C
Activity (HL-60 [1]): Active
Activity (HL-60 [2]): Active
Drug uptake (HL-60 [17]): 1 µM
Drug uptake (HL-60 [18]): 6 µM
IC50 (HL-60 [3]): > 50 µM

C[C@H](/C=C/c1cc[n+](C)cc1)[C@H]1CC[C@H]2C3=CC[C@H]4C[C@@H](O)CC[C@]4(C)[C@H]3CC[C@]12C.[I-]
Activity (HL-60 [1]): Active
Activity (HL-60 [11]): Toxic
IC50 (HL-60 [3]): 3 µM

CCCC(=O)NC[C@@H](C)[C@H]1CC[C@H]2C3=CC[C@H]4C[C@@H](OC(C)=O)CC[C@]4(C)[C@H]3CC[C@]12C
Activity (HL-60 [1]): Active
Activity (HL-60 [6]): Active
Activity (HL-60 [21]): Active
Activity (HL-60 [22]): Active
IC50 (HL-60 [3]): > 50 µM

C/C=C/C(=O)OC[C@@H](C)[C@H]1CC[C@H]2C3=CC[C@H]4C[C@@H](OC(C)=O)CC[C@]4(C)[C@H]3CC[C@]12C
Activity (HL-60 [1]): Active
Activity (HL-60 [11]): Toxic
IC50 (HL-60 [3]): 10 µM
